Data reported in EP0908457B1, “3-(1,2-benzisothiazol- and isoxazol-5-Y1)-2,4(1H,3H)-pyrimidinedione or thione and 3-(1,2-benzisothiazol- and isoxazol-5-y1)-4(3H)-pyrimidinone or thione herbicidal agents” (BASF AKTIENGESELLSCHAFT, priority 1997, dated 1999).
Where “and” joins values, the source holds several entries; their conditions need not be identical. Identical values can stand only once. Counter-ions that a name gives are not always drawn.

Key:
Format in all cases: in vivo
[1] = system: Echinochloa oryzoides (Ard.) Fritsch.; experiment: Preemergence weed control under flooded paddy conditions, ECHORC (Watergrass (Calif.)); settings: for ECHORC: herbicidal effect rating 0-9, three to four weeks after treatment; as to herbicidal effect rating, ECHORC: meaning of each grade not given here
[2] = system: Monochoria vaginalis, Presl.; experiment: Preemergence weed control under flooded paddy conditions, MOOVA (Monochoria); settings: for MOOVA: preemergence weeds, herbicidal effect rating 0-9, three to four weeks after treatment; for MOOVA / MOOVA herbicidal rating: flooded paddy; for MOOVA herbicidal rating: preemergence, rated three to four weeks after treatment; as to herbicidal effect rating, MOOVA: meaning of each grade not given here
Sagittaria pygmaea, L. = experiment: Preemergence weed control under flooded paddy conditions, SAGPY (Arrowhead (Pygmaea)); settings: for SAGPY: herbicidal effect rating 0-9, three to four weeks after treatment; as to herbicidal effect rating, SAGPY: meaning of each grade not given here
Cyperus iria = experiment: Preemergence weed control under flooded paddy conditions, CYPIR (Rice Flatsedge); settings: flooded paddy; for herbicidal effect rating, CYPIR / CYPIR herbicidal rating: rated three to four weeks after treatment; for CYPIR: herbicidal effect rating 0-9, three to four weeks after treatment; as to herbicidal effect rating, CYPIR: meaning of each grade not given here
[3] = system: Cyperus serotinus, Rottb.; experiment: Preemergence weed control under flooded paddy conditions, CYPSE (Flatsedge); settings: for herbicidal effect rating, CYPSE / CYPSE herbicidal rating: rated three to four weeks after treatment; for CYPSE: herbicidal effect rating 0-9, three to four weeks after treatment; as to herbicidal effect rating, CYPSE: meaning of each grade not given here
[4] = 0.1250 kg/ha, preemergence, flooded paddy, rated three to four weeks after treatment
[5] = 0.2500 kg/ha, preemergence, flooded paddy, rated three to four weeks after treatment
[6] = Rate 0.0320 kg/ha, preemergence weeds, flooded paddy, rated three to four weeks after treatment
[7] = Rate 0.0620 kg/ha, preemergence weeds, flooded paddy, rated three to four weeks after treatment
[8] = Rate 0.1250 kg/ha, preemergence weeds, flooded paddy, rated three to four weeks after treatment
[9] = Rate 0.2500 kg/ha, preemergence weeds, flooded paddy, rated three to four weeks after treatment
[10] = Rate 0.0320 kg/ha, preemergence weeds
[11] = Rate 0.0620 kg/ha, preemergence weeds
[12] = Rate 0.1250 kg/ha, preemergence weeds
[13] = Rate 0.2500 kg/ha, preemergence weeds
[14] = 0.0320 kg/ha, preemergence weeds, flooded paddy
[15] = 0.0620 kg/ha, preemergence weeds, flooded paddy
[16] = 0.1250 kg/ha, preemergence weeds, flooded paddy
[17] = 0.2500 kg/ha, preemergence weeds, flooded paddy
[18] = 0.0320 kg/ha, preemergence weeds
[19] = 0.0620 kg/ha, preemergence weeds
[20] = 0.1250 kg/ha, preemergence weeds
[21] = 0.2500 kg/ha, preemergence weeds
[22] = 0.0320 kg/ha, preemergence, flooded paddy, rated three to four weeks after treatment
[23] = 0.0620 kg/ha, preemergence, flooded paddy, rated three to four weeks after treatment
[24] = Rate 0.0320 kg/ha, preemergence, flooded paddy, rated three to four weeks after treatment
[25] = Rate 0.0620 kg/ha, preemergence, flooded paddy, rated three to four weeks after treatment
[26] = Rate 0.1250 kg/ha, preemergence, flooded paddy, rated three to four weeks after treatment
[27] = Rate 0.2500 kg/ha, preemergence, flooded paddy, rated three to four weeks after treatment
[28] = Rate 0.0320 kg/ha, preemergence
[29] = Rate 0.0620 kg/ha, preemergence
[30] = Rate 0.1250 kg/ha, preemergence
[31] = Rate 0.2500 kg/ha, preemergence

Cc1ccc(OC(C)C(=O)[O-])c(-c2nsc3ccc(-n4c(=O)cc(C(F)(F)F)n(C)c4=O)cc23)c1.[Na+] (racemic) [Example 82, Sodium 2-{{2-{5-[3,6-dihydro-3-methyl-2,6-dioxo-4-(trifluoromethyl)-1(2H)-pyrimidinyl]-1,2-benzisothiazol-3-yl}-p-tolyl}oxy}propionate, DL-]
herbicidal effect rating, ECHORC ([1]; 0.0313 kg/ha, preemergence, flooded paddy, rated three to four weeks after treatment): 9.0
herbicidal effect rating, ECHORC ([1]; 0.0625 kg/ha, preemergence, flooded paddy, rated three to four weeks after treatment): 9.0
herbicidal effect rating, ECHORC [1, 4]: 9.0
herbicidal effect rating, ECHORC [1, 5]: 9.0

COC(=O)[C@@H](C)Oc1ccc(C)cc1-c1nsc2ccc(-n3c(=O)cc(C(F)(F)F)n(C)c3=O)cc12 [Example 14, Methyl 2-{{2-{5-[3,6-dihydro-3-methyl-2,6-dioxo-4-(trifluoromethyl)-1(2H)-pyrimidinyl]-1,2-benzisothiazol-3-yl}-p-tolyl}oxy}propionate, (R)-]
herbicidal effect rating, ECHORC ([1]; in vivo): 7.5 and 6.5 and 5.0 and 4.0
herbicidal effect rating, MOOVA ([2]; in vivo): 9.0
herbicidal effect rating, SAGPY (Sagittaria pygmaea, L.; in vivo): 0.0

Cc1ccc(OCC(=O)NS(=O)(=O)CCl)c(-c2nsc3ccc(-n4c(=O)cc(C(F)(F)F)n(C)c4=O)cc23)c1 [Example 343]
herbicidal effect rating, ECHORC [1, 6]: 3.0
herbicidal effect rating, ECHORC [1, 7]: 6.0
herbicidal effect rating, ECHORC [1, 8]: 7.0
herbicidal effect rating, ECHORC [1, 9]: 9.0
herbicidal effect rating, CYPIR (Cyperus iria; [10]): 0.0
herbicidal effect rating, CYPIR (Cyperus iria; [11]): 0.0
herbicidal effect rating, CYPIR (Cyperus iria; [12]): 0.0
herbicidal effect rating, CYPIR (Cyperus iria; [13]): 6.0
herbicidal effect rating, CYPSE [3, 10]: 0.0
herbicidal effect rating, CYPSE [3, 11]: 3.0
herbicidal effect rating, CYPSE [3, 12]: 4.0
herbicidal effect rating, CYPSE [3, 13]: 6.0
herbicidal effect rating, SAGPY (Sagittaria pygmaea, L.; [6]): 0.0
herbicidal effect rating, SAGPY (Sagittaria pygmaea, L.; [7]): 0.0
herbicidal effect rating, SAGPY (Sagittaria pygmaea, L.; [8]): 0.0
herbicidal effect rating, SAGPY (Sagittaria pygmaea, L.; [9]): 3.0

CC(OS(=O)(=O)C(C)C)c1nsc2ccc(-n3c(=O)cc(C(F)(F)F)n(C)c3=O)cc12 (stereo not shown) [Example 413, 2,4(1H,3H)-Pyrimidinedione, 3-[3-(1-hydroxyethyl)-1,2-benzisothiazol-5-yl]-1-methyl-6-(trifluoromethyl)-, 1-methylethanesulfonate (ester)]
ECHORC [1, 14]: 0.0
ECHORC [1, 15]: 0.0
ECHORC [1, 16]: 0.0
ECHORC [1, 17]: 6.0
CYPIR (Cyperus iria; [18]): 0.0
CYPIR (Cyperus iria; [19]): 2.0
CYPIR (Cyperus iria; [20]): 5.0
CYPIR (Cyperus iria; [21]): 7.0
CYPSE [3, 18]: 0.0
CYPSE [3, 19]: 3.0
CYPSE [3, 20]: 5.0
CYPSE [3, 21]: 9.0
MOOVA ([2]; 0.0320 kg/ha): 7.0
MOOVA ([2]; 0.0620 kg/ha): 9.0
MOOVA ([2]; 0.1250 kg/ha): 9.0
MOOVA ([2]; 0.2500 kg/ha): 9.0

CCCCS(=O)(=O)OC(C)c1nsc2ccc(-n3c(=O)cc(C(F)(F)F)n(C)c3=O)cc12 (stereo not shown) [Example 414, 2,4(1H,3H)-Pyrimidinedione, 3-[3-(1-hydroxyethyl)-1,2-benzisothiazol-5-yl]-1-methyl-6-(trifluoromethyl)-, butanesulfonate (ester)]
ECHORC [1, 14]: 0.0
ECHORC [1, 15]: 0.0
ECHORC [1, 16]: 2.0
ECHORC [1, 17]: 7.0
CYPIR (Cyperus iria; [18]): 0.0
CYPIR (Cyperus iria; [19]): 2.0
CYPIR (Cyperus iria; [20]): 6.0
CYPIR (Cyperus iria; [21]): 9.0
CYPSE [3, 18]: 0.0
CYPSE [3, 21]: 9.0
MOOVA ([2]; 0.0620 kg/ha): 7.0
MOOVA ([2]; 0.1250 kg/ha): 7.0
MOOVA ([2]; 0.2500 kg/ha): 7.0

Cn1c(C(F)(F)F)cc(=O)n(-c2ccc3snc(C(=O)NOS(=O)(=O)O)c3c2)c1=O [Example 417, 1,2-Benzisothiazole-3-carbohydroxamic acid, 5-[3,6-dihydro-3-methyl-2,6-dioxo-4-(trifluoromethyl)-1(2H)-pyrimidinyl]-, hydrogen sulfate (ester)]
ECHORC [1, 14]: 0.0
ECHORC [1, 15]: 0.0
ECHORC [1, 16]: 3.0
ECHORC [1, 17]: 3.0
CYPIR (Cyperus iria; [18]): 4.0
CYPIR (Cyperus iria; [19]): 4.0
CYPIR (Cyperus iria; [20]): 5.0
CYPIR (Cyperus iria; [21]): 6.0
CYPSE [3, 20]: 3.0
MOOVA ([2]; 0.0320 kg/ha): 6.0
MOOVA ([2]; 0.0620 kg/ha): 6.0
MOOVA ([2]; 0.1250 kg/ha): 9.0
MOOVA ([2]; 0.2500 kg/ha): 9.0

CC(=O)OCCSC(SCCOC(C)=O)c1nsc2ccc(-n3c(=O)cc(C(F)(F)F)n(C)c3=O)cc12 [Example 418, 1,2-Benzisothiazole-3-carboxaldehyde, 5-[3,6-dihydro-3-methyl-2,6-dioxo-4-(trifluoromethyl)-1(2H)-pyrimidinyl]-, 3-[bis(2-hydroxyethyl)dithioacetal], diacetate (diester)]
ECHORC [1, 15]: 0.0
ECHORC [1, 16]: 1.0
ECHORC [1, 17]: 3.0
CYPIR (Cyperus iria; [19]): 0.0
CYPIR (Cyperus iria; [20]): 0.0
CYPIR (Cyperus iria; [21]): 0.0
CYPSE [3, 19]: 0.0
CYPSE [3, 21]: 0.0
MOOVA ([2]; 0.0620 kg/ha): 0.0
MOOVA ([2]; 0.1250 kg/ha): 0.0
MOOVA ([2]; 0.2500 kg/ha): 0.0

CC(=O)OCCCSC(SCCCOC(C)=O)c1nsc2ccc(-n3c(=O)cc(C(F)(F)F)n(C)c3=O)cc12 [Example 426, 1,2-Benzisothiazole-3-carboxaldehyde, 5-[3,6-dihydro-3-methyl-2,6-dioxo-4-(trifluoromethyl)-1(2H)-pyrimidinyl]-, 3-[bis(3-hydroxypropyl)dithioacetal], diacetate (diester)]
ECHORC [1, 14]: 5.0
ECHORC [1, 15]: 5.0
ECHORC [1, 16]: 5.0
ECHORC [1, 17]: 9.0
CYPIR (Cyperus iria; [18]): 5.0
CYPIR (Cyperus iria; [19]): 7.0
CYPIR (Cyperus iria; [20]): 7.0
CYPIR (Cyperus iria; [21]): 9.0
CYPSE [3, 18]: 0.0
CYPSE [3, 19]: 0.0
CYPSE [3, 20]: 0.0
CYPSE [3, 21]: 2.0
SAGPY (Sagittaria pygmaea, L.; [14]): 0.0
SAGPY (Sagittaria pygmaea, L.; [15]): 2.0
SAGPY (Sagittaria pygmaea, L.; [16]): 4.0
SAGPY (Sagittaria pygmaea, L.; [17]): 4.0

COCC(=O)OCc1nsc2ccc(-n3c(=O)cc(C(F)(F)F)n(C)c3=O)cc12 [Example 495, 2,4(1H,3H)-Pyrimidinedione, 3-[3-(hydroxymethyl)-1,2-benzisothiazol-5-yl]-1-methyl-6-(trifluoromethyl)-, methoxyacetate (ester)]
ECHORC herbicidal rating [1, 22]: 3.0
ECHORC herbicidal rating [1, 23]: 4.0
ECHORC herbicidal rating [1, 4]: 5.0
ECHORC herbicidal rating [1, 5]: 7.0
CYPIR herbicidal rating (Cyperus iria; 0.0320 kg/ha, preemergence): 6.0
CYPIR herbicidal rating (Cyperus iria; 0.0620 kg/ha, preemergence): 6.0
CYPIR herbicidal rating (Cyperus iria; 0.1250 kg/ha, preemergence): 7.0
CYPIR herbicidal rating (Cyperus iria; 0.2500 kg/ha, preemergence): 9.0
MOOVA herbicidal rating ([2]; 0.0320 kg/ha): 7.0
MOOVA herbicidal rating ([2]; 0.0620 kg/ha): 7.0
MOOVA herbicidal rating ([2]; 0.1250 kg/ha): 9.0
MOOVA herbicidal rating ([2]; 0.2500 kg/ha): 9.0
SAGPY herbicidal rating (Sagittaria pygmaea, L.; [22]): 0.0
SAGPY herbicidal rating (Sagittaria pygmaea, L.; [23]): 0.0
SAGPY herbicidal rating (Sagittaria pygmaea, L.; [4]): 3.0

CC(C)N(C(C)C)S(=O)(=O)NC(=O)C(C)(C)c1nsc2ccc(-n3c(=O)cc(C(F)(F)F)n(C)c3=O)cc12 [Example 511, 1,2-Benzisothiazole-3-acetamide, 5-[3,6-dihydro-3-methyl-2,6-dioxo-4-(trifluoromethyl)-1(2H)-pyrimidinyl]-N-(diisopropylsulfamoyl)-alpha, alpha-dimethyl-]
ECHORC herbicidal rating [1, 22]: 0.0
ECHORC herbicidal rating [1, 23]: 2.0
ECHORC herbicidal rating [1, 4]: 5.0
ECHORC herbicidal rating [1, 5]: 7.0
CYPIR herbicidal rating (Cyperus iria; 0.0320 kg/ha, preemergence): 0.0
CYPIR herbicidal rating (Cyperus iria; 0.0620 kg/ha, preemergence): 0.0
CYPIR herbicidal rating (Cyperus iria; 0.1250 kg/ha, preemergence): 2.0
CYPIR herbicidal rating (Cyperus iria; 0.2500 kg/ha, preemergence): 7.0
CYPSE herbicidal rating ([3]; 0.0320 kg/ha, preemergence): 0.0
CYPSE herbicidal rating ([3]; 0.0620 kg/ha, preemergence): 0.0
CYPSE herbicidal rating ([3]; 0.1250 kg/ha, preemergence): 3.0
CYPSE herbicidal rating ([3]; 0.2500 kg/ha, preemergence): 3.0
SAGPY herbicidal rating (Sagittaria pygmaea, L.; [22]): 0.0
SAGPY herbicidal rating (Sagittaria pygmaea, L.; [23]): 0.0
SAGPY herbicidal rating (Sagittaria pygmaea, L.; [4]): 0.0
SAGPY herbicidal rating (Sagittaria pygmaea, L.; [5]): 7.0

CC(=O)OCCOC(=O)COc1ccc(C)cc1-c1nsc2ccc(-n3c(=O)cc(C(F)(F)F)n(C)c3=O)cc12 [Example 578, Acetic acid, {{2-{5-[3,6-dihydro-3-methyl-2,6-dioxo-4-(trifluoromethyl)-1(2H)-pyrimidinyl]-1,2-benzisothiazol-3-yl}-p-tolyl}oxy}-, 2-hydroxyethyl ester, acetate (ester)]
herbicidal effect rating, ECHORC [1, 24]: 5.0
herbicidal effect rating, ECHORC [1, 25]: 6.0
herbicidal effect rating, ECHORC [1, 26]: 7.0
herbicidal effect rating, ECHORC [1, 27]: 9.0
herbicidal effect rating, CYPIR (Cyperus iria; [28]): 4.0
herbicidal effect rating, CYPIR (Cyperus iria; [29]): 5.0
herbicidal effect rating, CYPIR (Cyperus iria; [30]): 5.0
herbicidal effect rating, CYPIR (Cyperus iria; [31]): 7.0
herbicidal effect rating, CYPSE [3, 28]: 3.0
herbicidal effect rating, CYPSE [3, 29]: 6.0
herbicidal effect rating, CYPSE [3, 30]: 6.0
herbicidal effect rating, CYPSE [3, 31]: 9.0
herbicidal effect rating, SAGPY (Sagittaria pygmaea, L.; [24]): 3.0
herbicidal effect rating, SAGPY (Sagittaria pygmaea, L.; [25]): 6.0
herbicidal effect rating, SAGPY (Sagittaria pygmaea, L.; [26]): 6.0
herbicidal effect rating, SAGPY (Sagittaria pygmaea, L.; [27]): 9.0
